Consider 4 molecules from ChEMBL document CHEMBL6153074, “Discovery of novel dual tubulin and MMPs inhibitors for the treatment of lung cancer and overcoming drug resistance” (Eur J Med Chem, 2025).

One data set deals with MCF7. Description: Antiproliferative activity against human MCF7 cells by CCK8 assay. (In general: Tetrazolium dyes change colour on reduction, which living cells bring about.)
Data set [1] in a line: Antiproliferative activity against human MCF-10A cells by CCK8 assay. It counts as toxicity, cell-based.
The next data set concerns NCI-H460. Description: Antiproliferative activity against human NCI-H460 cells by CCK8 assay.
Data set [2] is described as follows: Selectivity index, ratio of IC50 for antiproliferative activity against human L02 cells to IC50 for antiproliferative activity against human A549 cells. It counts as toxicity, cell-based. The following applies: L02 cells and A549 cells, read-out: Ratio IC50.
The next data set deals with MDA-MB-231. Nature of the data set: Antiproliferative activity against human MDA-MB-231 cells by CCK8 assay.
Data set [3] deals with A549. Description: cells. The settings on record: Homo sapiens.
Description: Antiproliferative activity against human A549 cells by CCK8 assay
Data set [4] is described as follows: Selectivity index, ratio of IC50 for antiproliferative activity against human MCF-10A cells to IC50 for antiproliferative activity against human MCF7 cells. The class given is toxicity, cell-based. The following applies: MCF-10A cells and MCF7 cells, read-out: Ratio IC50.
Data set [5] can be described thus: Antiproliferative activity against human L02 cells by CCK8 assay. The class given is toxicity, cell-based.
Data set [6] addresses T1, Tubulin (Homo sapiens) (UniProt P68371+Q9H4B7+P0DPH7+P68366+Q13509+Q71U36+P04350+Q3ZCM7+P07437+P68363+Q9BQE3+Q6PEY2+Q13885+Q9BVA1+Q9BUF5). Description: Disruption of microtubule network in human A549 cells assessed as cell disorganisation at 5 uM incubated for 24 hrs by immunofluorescence based analysis.
Data set [7] concerns A549. Nature of the data set: Induction of apoptosis in human A549 cells assessed as early apoptotic cells at 0.5 uM incubated for 24 hrs by Annexin V-FITC/PI staining based flow cytometry (reference value: 3.04 %). It counts as functional. For orientation: A flow cytometer gives signals particle by particle.
Data set [8] deals with A549. Description: Induction of cell cycle arrest in human A549 cells assessed as accumulation at S phase at 0.5 uM incubated for 24 hrs by PI staining based flow cytometry (reference value: 37.95 %). It counts as functional.
The subject of data set [9] is A549. Nature of the data set: Induction of apoptosis in human A549 cells assessed as viable cells at 0.5 uM incubated for 24 hrs by Annexin V-FITC/PI staining based flow cytometry (reference value: 95.82 %). The class given is functional. The settings on record: read-out: Activity.
For data set [10], the system named is A549. Nature of the data set: Antitumor activity against human A549 cells xenografted in BALB/c mouse at 20 mg/kg, ip for 3 weeks administered on every 2 days relative to control. The settings on record: A549, 504 h, read-out: TGI. The class given is functional. On the technique in general: Xenograft models place foreign cells or tissue in a host animal.
For data set [11], the system named is A549. Description: Induction of cell cycle arrest in human A549 cells assessed as accumulation at G2 phase at 0.5 uM incubated for 24 hrs by PI staining based flow cytometry (reference value: 3.37 %). The class given is functional.
Data set [12] deals with A549. Description: Induction of apoptosis in human A549 cells assessed as late apoptotic cells at 0.5 uM incubated for 24 hrs by Annexin V-FITC/PI staining based flow cytometry (reference value: 1.01 %). It counts as functional.
Data set [13] deals with A549. Description: Induction of cell cycle arrest in human A549 cells assessed as accumulation at G1 phase at 0.5 uM incubated for 24 hrs by PI staining based flow cytometry (reference value: 58.67 %). The class given is functional.
Data set [14] concerns the target T1, Tubulin (Homo sapiens). Nature of the data set: Disruption of microtubule network in human A549 cells assessed as contraction towards cell border at 5 uM incubated for 24 hrs by immunofluorescence based analysis.
Data set [15] deals with A549. Nature of the data set: Induction of intracellular ROS accumulation in human A549 cells at 0.5 uM incubated for 24 hrs by DCFH-DA dye based flow cytometry (reference value: 4.96 %). It counts as functional.
The test system of data set [16] is A549. Description: Anti-migration activity in human A549 cells assessed as migration rate at 0.5 uM incubated for 24 hrs by wound healing assay (reference value: 73.94 %). The class given is functional.
Data set [17] has as its system A549. Nature of the data set: Induction of mitochondrial membrane potential loss in human A549 cells at 0.5 uM incubated for 24 hrs by JC-1 dye based analysis (reference value: 3.14 %). It counts as functional.
The subject of data set [18] is A549. Description: Induction of apoptosis in human A549 cells assessed as necrotic cells at 0.5 uM incubated for 24 hrs by Annexin V-FITC/PI staining based flow cytometry (reference value: 0.13 %). It counts as functional.
The target in another data set is Stromelysin-1 (Homo sapiens, UniProt P08254). Nature of the data set: Inhibition of MMP-3 (unknown origin) using fluorogenic-McaPro-Leu-Gly-Leu-Dpa-Ala-Arg-NH2 as substrate.
The target of data set [19] is 72 kDa type IV collagenase (Homo sapiens, UniProt P08253). Nature of the data set: Inhibition of MMP-2 (unknown origin) using fluorogenic-McaPro-Leu-Gly-Leu-Dpa-Ala-Arg-NH2 as substrate.
The target of data set [20] is Matrix metalloproteinase-9 (Homo sapiens, UniProt P14780). Nature of the data set: Inhibition of MMP-9 (unknown origin) using fluorogenic-McaPro-Leu-Gly-Leu-Dpa-Ala-Arg-NH2 as substrate.

Activity calls are given as the source filed them. No cut-off for these calls is given here.

Chain of Stromelysin-1 (P08254 whole entry): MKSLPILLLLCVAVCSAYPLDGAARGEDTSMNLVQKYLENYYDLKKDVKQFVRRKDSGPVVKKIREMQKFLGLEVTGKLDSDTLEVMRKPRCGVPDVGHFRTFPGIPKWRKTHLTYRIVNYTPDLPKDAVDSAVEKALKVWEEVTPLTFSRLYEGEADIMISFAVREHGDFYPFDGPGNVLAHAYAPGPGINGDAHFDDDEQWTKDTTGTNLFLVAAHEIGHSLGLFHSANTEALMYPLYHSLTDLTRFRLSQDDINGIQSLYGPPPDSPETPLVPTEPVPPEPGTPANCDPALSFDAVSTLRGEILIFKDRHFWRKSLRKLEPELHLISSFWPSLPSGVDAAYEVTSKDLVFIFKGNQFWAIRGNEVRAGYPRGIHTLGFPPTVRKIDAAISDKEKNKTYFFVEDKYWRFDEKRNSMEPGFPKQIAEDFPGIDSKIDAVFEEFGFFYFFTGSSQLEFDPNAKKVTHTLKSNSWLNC
Chain of 72 kDa type IV collagenase (P08253 whole entry): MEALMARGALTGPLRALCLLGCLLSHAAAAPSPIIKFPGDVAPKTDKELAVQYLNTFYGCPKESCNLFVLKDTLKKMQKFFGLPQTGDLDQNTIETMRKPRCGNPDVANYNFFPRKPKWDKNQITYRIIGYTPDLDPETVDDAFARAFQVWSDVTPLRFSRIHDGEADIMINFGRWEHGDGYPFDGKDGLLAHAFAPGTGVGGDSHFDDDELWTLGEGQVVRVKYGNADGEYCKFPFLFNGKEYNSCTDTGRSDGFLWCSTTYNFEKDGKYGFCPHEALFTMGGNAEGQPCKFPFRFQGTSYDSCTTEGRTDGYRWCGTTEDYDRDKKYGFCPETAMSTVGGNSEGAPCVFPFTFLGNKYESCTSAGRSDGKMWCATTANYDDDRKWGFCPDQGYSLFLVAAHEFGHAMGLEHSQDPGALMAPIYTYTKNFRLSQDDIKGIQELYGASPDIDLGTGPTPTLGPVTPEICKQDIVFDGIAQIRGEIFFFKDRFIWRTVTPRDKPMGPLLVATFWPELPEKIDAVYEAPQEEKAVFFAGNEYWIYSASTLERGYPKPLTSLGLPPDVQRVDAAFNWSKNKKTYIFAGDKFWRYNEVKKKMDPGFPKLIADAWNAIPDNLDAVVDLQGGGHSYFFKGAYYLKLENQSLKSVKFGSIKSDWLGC
Chain of Matrix metalloproteinase-9 (P14780 whole entry): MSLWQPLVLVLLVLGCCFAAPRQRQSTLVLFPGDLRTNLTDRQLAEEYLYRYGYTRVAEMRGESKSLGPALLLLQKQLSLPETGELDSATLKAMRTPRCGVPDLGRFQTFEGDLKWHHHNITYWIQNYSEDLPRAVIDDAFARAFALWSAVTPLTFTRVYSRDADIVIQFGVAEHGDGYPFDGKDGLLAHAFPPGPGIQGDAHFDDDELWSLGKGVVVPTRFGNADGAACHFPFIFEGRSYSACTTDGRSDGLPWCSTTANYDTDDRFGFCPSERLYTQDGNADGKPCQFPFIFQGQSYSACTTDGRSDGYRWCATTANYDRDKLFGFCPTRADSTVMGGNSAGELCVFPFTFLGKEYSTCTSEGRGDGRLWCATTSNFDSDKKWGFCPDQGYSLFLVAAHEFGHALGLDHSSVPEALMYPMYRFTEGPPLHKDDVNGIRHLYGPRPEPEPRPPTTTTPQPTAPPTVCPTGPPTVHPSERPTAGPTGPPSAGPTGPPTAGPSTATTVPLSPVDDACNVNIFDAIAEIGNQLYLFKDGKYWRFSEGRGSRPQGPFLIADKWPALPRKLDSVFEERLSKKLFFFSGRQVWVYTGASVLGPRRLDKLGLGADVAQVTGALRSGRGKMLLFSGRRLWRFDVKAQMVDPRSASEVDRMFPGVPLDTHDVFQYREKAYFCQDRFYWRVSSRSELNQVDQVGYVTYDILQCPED

Regarding `CC(=O)O[C@H]1C(=O)[C@@]2(C)[C@H]([C@H](OC(=O)c3ccccc3)[C@]3(O)C[C@H](OC(=O)[C@H](O)[C@@H](NC(=O)c4ccccc4)c4ccccc4)C(C)=C1C3(C)C)[C@]1(OC(C)=O)CO[C@@H]1C[C@@H]2O` [PACLITAXEL], the IC50 (usually the point on the concentration scale where inhibition reaches its midpoint) in the data set with MCF7 is 122 nM; in data set [1], 114 nM; in the data set on NCI-H460, 155 nM; with MDA-MB-231, 208 nM; in the data set on A549 [3], 109 nM; in data set [5], 95 nM. Besides, the selectivity ratio in data set [2] came out at 0.87; in data set [4], 0.93.
In the case of `COc1ccc(/C=C/C(=O)c2cc(OC)c(OC)c(OC)c2)cc1O`, the result on Tubulin (Homo sapiens) [6] and at Tubulin (Homo sapiens) [14] was Active. Moreover, the Activity in the data set on A549 [7] is given as 24.49%; in the data set on A549 [8], 14.34%; in the data set on A549 [11], 69.1%; in the data set on A549 [12] it was 5.23%; with A549 [13], 16.56%; with A549 [15], 54.64%. Further, the Activity stood at 45.16% in the data set on A549 [16], 40.88% in the data set on A549 [17] and 0.84% with A549 [18]. Further, the viability at 0.5 µM in the data set on A549 [9] is 69.5%. Further, the IC50 in the data set on MCF7 was determined as 722 nM; in [1], 967 nM; in the data set on NCI-H460 it was 538 nM; in the data set on MDA-MB-231, 808 nM; in the data set with A549 [3], 456 nM; in data set [5], 1090 nM. Further, the selectivity ratio worked out at 2.4 in [2] and 1.34 in data set [4]. In addition, the inhibition in vivo at 20 mg/kg with A549 [10] is 64.7%.
Regarding `COc1cccc2c1C(=O)c1c(O)c3c(c(O)c1C2=O)C[C@@](O)(C(=O)CO)C[C@@H]3O[C@H]1C[C@H](N)[C@H](O)[C@H](C)O1` [DOXORUBICIN], the IC50 in data set [1] amounted to 973 nM; in data set [5], 1320 nM.
On to `Cc1ccc2nc(-c3cccc(NC(=O)CCc4ccccc4)c3)[nH]c2c1`, for which the IC50 on Stromelysin-1 came out at 46300 nM; in data set [19], 36400 nM; in data set [20] it was 28400 nM.
